# Patent US20150307938A1, “METHOD TO IDENTIFY A NOVEL CLASS OF IMMUNOLOGIC ADJUVANTS” (Lancell, L.L.C., priority 2011, published 2015)
# Marks after values point to notes of the source that are not given here.
# System: full thickness skin
# Assay: Whole genome array of skin gene expression after topical DBP (time course)
# Type: in vivo, C57BL/6J mice
# Method: Mice: C57BL/6J female mice obtained from The Jackson Laboratory were used between 8 and 12 weeks of age.
# Treatment: Mice were untreated or treated topically on the dorsal side of each ear with […] of dibutylphthalate (DBP). At the designated time points after treatment, the animals were euthanized and the ears washed with 70% isopropanol. Full thickness skin was obtained from the dorsal side of both ears and placed immediately in liquid nitrogen. The time between euthanasia and placement of both skin samples in liquid nitrogen was less than 1 minute. Each sample for RNA extraction contained two dorsal ear skin samples obtained from a single mouse both of whose ears received the same treatment.
# RNA Extraction: While in liquid nitrogen, the skin was pulverized with a motorized mortar and pestle (CryoGrinder), transferred by inversion of the mortar directly into 1.5 ml cryogenic vials (Nalgene) and stored in liquid nitrogen until RNA extraction. Total RNA from both ears was extracted by homogenization (Pro200) in TRIzol Reagent (Invitrogen) with 7.5 μg of RNase-free glycogen added to the mixture, according to the manufacturer's directions. The RNA was purified on a solid phase RNeasy MinElute Cleanup column (Qiagen) and eluted with 17 μL of RNase-free water. The samples were stored at −20° C. until use.
# Quantification of RNA: RNA yields were quantified by UV absorption using a NanoDrop NG-1000 spectrophotometer, where 1 AU 260 equals 40 μg RNA/ml. Purity was estimated by the 260 and 280 nm absorbance ratio; values between 1.7 and 2.1 were considered acceptable.
# Assessment of RNA Quality: The quality of sample RNA was assessed using a RNA 6000 LABCHIP Kit on an Agilent 2100 Bioanalyzer. The Bioanalyzer determines the integrity/purity of the RNA samples and permits the screening of total and mRNA sample degradation and ribosomal RNA contamination. An RNA 6000 ladder was also loaded on a specified well and used as a reference for data analysis and a built-in quality control measure. The quality and integrity of the RNA was determined through visual inspection of each electropherogram. In general, only samples with a RIN (RNA integrity number) of 7 or greater, as determined by the Bioanalyzer, were used for gene arrays. This quality control analysis was repeated following the labeling procedure to ensure that the probes were efficiently labeled and had the correct size before hybridization to the chips. All samples that were run on genome wide arrays were obtained as independent duplicates from two individual mice.
# Microarray Data Interpretation: Gene expression was compared between untreated and treated total RNA samples. “Transition” data, which represent the change in expression level for a given gene, are presented as a “weighted difference.” Changes in gene expression level were considered to be significant when the adjusted p values were less than […]. The “gene expression signature” arbitrarily includes only those genes that were transcribed with a weighted increase of 2.0 or greater, which was sustained over the subsequent time points tested.
# The weighted difference is a metric that takes into account both the variability between different time-points and the variability between replicates at the same time-point. The calculations are performed for each time-point transition, i.e., 30 minutes vs. 1 hour, 1 hour vs. 2 hours, etc. There are two steps to the calculation: the calculation of a modified Euclidean difference between the two time-points, and the calculation of the Euclidean difference between the replicates within each time-point. The first measure is an unweighted difference, while the final metric given in the spreadsheet “weights” this difference by taking into account the second measure.
# In a Euclidean difference calculation, each data point is considered as a vector in a multi-dimensional space, and the actual straight-line distance between the data points is calculated. […]
structure (smiles),measurement,setting,value
"CCCCOC(=O)c1ccccc1C(=O)OCCCC [DBP, dibutylphthalate]",% Shared (DBP-induced genes also TLR-induced),15 min,64%
same,"DBP Unique genes, number",15 min,12
same,"TLR-Induced among DBP-induced genes, number",15 min,21^
same,"DBP-Induced genes (≧2x Increased Expression), number","15 min, early response genes",33*
same,Acot5 Change in Gene Expression (Weighted Difference),15 min to 30 min Transition,1.225
same,Akr1c18 Change in Gene Expression (Weighted Difference),15 min to 30 min Transition,−0.6119
same,Atp2c2 Change in Gene Expression (Weighted Difference),15 min to 30 min Transition,0.1754
same,Btg2 Change in Gene Expression (Weighted Difference),15 min to 30 min Transition,5.994
same,Ccr4 Change in Gene Expression (Weighted Difference),15 min to 30 min Transition,−0.287
same,Cdh10 Change in Gene Expression (Weighted Difference),15 min to 30 min Transition,0.1979
same,Cish Change in Gene Expression (Weighted Difference),15 min to 30 min Transition,1.725
same,Cox17 Change in Gene Expression (Weighted Difference),15 min to 30 min Transition,−0.6572
same,Cysltr1 Change in Gene Expression (Weighted Difference),15 min to 30 min Transition,−1.813
same,Egr1 Change in Gene Expression (Weighted Difference),15 min to 30 min Transition,4.967
same,Egr2 Change in Gene Expression (Weighted Difference),15 min to 30 min Transition,1.229
same,Frk Change in Gene Expression (Weighted Difference),15 min to 30 min Transition,−5.361
same,Gbp8 Change in Gene Expression (Weighted Difference),15 min to 30 min Transition,0.5698
same,Gem Change in Gene Expression (Weighted Difference),15 min to 30 min Transition,2.697
same,Gimap7 Change in Gene Expression (Weighted Difference),15 min to 30 min Transition,−0.2249
same,Ier3 Change in Gene Expression (Weighted Difference),15 min to 30 min Transition,12.73
same,Il10ra Change in Gene Expression (Weighted Difference),15 min to 30 min Transition,2.226
same,Jun Change in Gene Expression (Weighted Difference),15 min to 30 min Transition,1.717
same,Junb Change in Gene Expression (Weighted Difference),15 min to 30 min Transition,3.924
same,LOC100046066 Change in Gene Expression (Weighted Difference),15 min to 30 min Transition,−2.104
same,Madcam1 Change in Gene Expression (Weighted Difference),15 min to 30 min Transition,0.2824
same,Med17 Change in Gene Expression (Weighted Difference),15 min to 30 min Transition,−0.2295
same,Mkks Change in Gene Expression (Weighted Difference),15 min to 30 min Transition,−2.533
same,Mndal Change in Gene Expression (Weighted Difference),15 min to 30 min Transition,1.805
same,Myc Change in Gene Expression (Weighted Difference),15 min to 30 min Transition,2.987
same,N6amt2 Change in Gene Expression (Weighted Difference),15 min to 30 min Transition,−0.7998
same,Nr4a1 Change in Gene Expression (Weighted Difference),15 min to 30 min Transition,5.842
same,P2ry1 Change in Gene Expression (Weighted Difference),15 min to 30 min Transition,−2.116
same,Prf1 Change in Gene Expression (Weighted Difference),15 min to 30 min Transition,−0.05377
same,Sik1 Change in Gene Expression (Weighted Difference),15 min to 30 min Transition,2.597
same,Slc39a8 Change in Gene Expression (Weighted Difference),15 min to 30 min Transition,25.27
same,Tmed3 Change in Gene Expression (Weighted Difference),15 min to 30 min Transition,−0.4993
same,Zfp36 Change in Gene Expression (Weighted Difference),15 min to 30 min Transition,10.7
same,% Shared (DBP-induced genes also TLR-induced),30 min,64%
same,"DBP Unique genes, number",30 min,107
same,"DBP-Induced genes (≧2x Increased Expression), number",30 min,297
same,"TLR-Induced among DBP-induced genes, number",30 min,190^#
same,Acot5 Change in Gene Expression (Weighted Difference),30 min to 1 hr Transition,1.878
same,Akr1c18 Change in Gene Expression (Weighted Difference),30 min to 1 hr Transition,1.114
same,Atp2c2 Change in Gene Expression (Weighted Difference),30 min to 1 hr Transition,−0.008704
same,Btg2 Change in Gene Expression (Weighted Difference),30 min to 1 hr Transition,2.926
same,Ccr4 Change in Gene Expression (Weighted Difference),30 min to 1 hr Transition,0.2055
same,Cdh10 Change in Gene Expression (Weighted Difference),30 min to 1 hr Transition,0.2384
same,Cish Change in Gene Expression (Weighted Difference),30 min to 1 hr Transition,1.825
same,Cox17 Change in Gene Expression (Weighted Difference),30 min to 1 hr Transition,−0.02512
same,Cysltr1 Change in Gene Expression (Weighted Difference),30 min to 1 hr Transition,0.06681
same,Egr1 Change in Gene Expression (Weighted Difference),30 min to 1 hr Transition,5.495
same,Egr2 Change in Gene Expression (Weighted Difference),30 min to 1 hr Transition,2.326
same,Frk Change in Gene Expression (Weighted Difference),30 min to 1 hr Transition,3.985
same,Gbp8 Change in Gene Expression (Weighted Difference),30 min to 1 hr Transition,0.1048
same,Gem Change in Gene Expression (Weighted Difference),30 min to 1 hr Transition,3.044
same,Gimap7 Change in Gene Expression (Weighted Difference),30 min to 1 hr Transition,−0.004049
